Patent publication US9695155B2, “Herbicidal substituted pyrimidinyloxy benzene compounds” (E. I. DU PONT DE NEMOURS AND COMPANY, priority 2013, dated 2017)

Experiments:
[1] = tested on: velvetleaf; assay: Test A postemergence; format: in vivo, Abutilon theophrasti; conditions: 0 to 100 scale where 0 is no effect and 100 is complete control; for Velvetleaf plant response rating: 125 g ai/ha; for Plant response rating, Velvetleaf: 500 g ai/ha
Procedure, shortened: (§1)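 Scoring: eye-based comparison with untreated controls, 0 for no effect through 100 for complete control, at about day 10. Treatments: directed soil spray preemergence; foliar spray postemergence on 2–10 cm plants at the one- to two-leaf stage. Medium: loam soil with sand.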

[2] = tested on: barnyardgrass; assay: Test A postemergence; format: in vivo, Echinochloa crus-galli; conditions: 0 to 100 scale where 0 is no effect and 100 is complete control; for Barnyardgrass plant response rating: 125 g ai/ha; for Plant response rating, Barnyardgrass: 500 g ai/ha
Procedure, shortened: as §1

[3] = tested on: barnyardgrass; assay: Test B flooded paddy test; format: in vivo, Echinochloa crus-galli; conditions: Flood, 250 g ai/ha; 0 to 100 scale where 0 is no effect and 100 is complete control
Procedure, shortened: (§2)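 Plants were grown to the 2-leaf stage, then pots were flooded to 3 cm above the soil and compounds were applied directly into the paddy water. That depth was held throughout, and after 13 to 15 days in the greenhouse injury was rated visually against controls on a 0–100 scale (0 no effect, 100 complete control).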

[4] = tested on: morningglory; assay: Test A preemergence; format: in vivo, Ipomoea spp.; conditions: for Morningglory plant response rating (0 to 100 scale): 125 g ai/ha; for Morningglory plant response rating: 500 g ai/ha, 0 to 100 scale where 0 is no effect and 100 is complete control
Procedure, shortened: as §1

[5] = tested on: corn; assay: Test A preemergence; format: in vivo, Zea mays; conditions: for Corn plant response rating (0 to 100 scale): 125 g ai/ha; for Corn plant response rating: 500 g ai/ha, 0 to 100 scale where 0 is no effect and 100 is complete control
Procedure, shortened: as §1

[6] = tested on: giant foxtail; assay: Test A postemergence; format: in vivo, Setaria faberii; conditions: 0 to 100 scale where 0 is no effect and 100 is complete control; for Foxtail, Giant plant response rating: 125 g ai/ha; for Plant response rating, Foxtail, Giant: 500 g ai/ha
Procedure, shortened: as §1

[7] = tested on: pigweed; assay: Test A postemergence; format: in vivo, Amaranthus retroflexus; conditions: 0 to 100 scale where 0 is no effect and 100 is complete control; for Pigweed plant response rating: 125 g ai/ha; for Plant response rating, Pigweed: 500 g ai/ha
Procedure, shortened: as §1

[8] = tested on: wheat; assay: Test A postemergence; format: in vivo, Triticum aestivum; conditions: 0 to 100 scale where 0 is no effect and 100 is complete control; for Wheat plant response rating: 125 g ai/ha; for Plant response rating, Wheat: 500 g ai/ha
Procedure, shortened: as §1

[9] = tested on: sedge, umbrella; assay: Test B flooded paddy test; format: in vivo, Cyperus difformis; conditions: Flood, 250 g ai/ha; 0 to 100 scale where 0 is no effect and 100 is complete control
Procedure, shortened: as §2

[10] = tested on: velvetleaf; assay: Test A preemergence; format: in vivo, Abutilon theophrasti; conditions: for Velvetleaf plant response rating (0 to 100 scale): 125 g ai/ha; for Velvetleaf plant response rating: 500 g ai/ha, 0 to 100 scale where 0 is no effect and 100 is complete control
Procedure, shortened: as §1

[11] = tested on: morningglory; assay: Test A postemergence; format: in vivo, Ipomoea spp.; conditions: 0 to 100 scale where 0 is no effect and 100 is complete control; for Morningglory plant response rating: 125 g ai/ha; for Plant response rating, Morningglory: 500 g ai/ha
Procedure, shortened: as §1

[12] = tested on: giant foxtail; assay: Test A preemergence; format: in vivo, Setaria faberii; conditions: for Foxtail, Giant plant response rating (0 to 100 scale): 125 g ai/ha; for Foxtail, Giant plant response rating: 500 g ai/ha, 0 to 100 scale where 0 is no effect and 100 is complete control
Procedure, shortened: as §1

[13] = tested on: barnyardgrass; assay: Test A preemergence; format: in vivo, Echinochloa crus-galli; conditions: for Barnyardgrass plant response rating (0 to 100 scale, 0 is no effect, 100 is complete control): 125 g ai/ha; for Barnyardgrass plant response rating: 500 g ai/ha, 0 to 100 scale where 0 is no effect and 100 is complete control
Procedure, shortened: as §1

[14] = tested on: large (Lg) crabgrass; assay: Test A preemergence; format: in vivo, Digitaria sanguinalis; conditions: for Crabgrass, Large plant response rating (0 to 100 scale): 125 g ai/ha; for Crabgrass, Large plant response rating: 500 g ai/ha, 0 to 100 scale where 0 is no effect and 100 is complete control
Procedure, shortened: as §1

[15] = tested on: wheat; assay: Test A preemergence; format: in vivo, Triticum aestivum; conditions: for Wheat plant response rating (0 to 100 scale): 125 g ai/ha; for Wheat plant response rating: 500 g ai/ha, 0 to 100 scale where 0 is no effect and 100 is complete control
Procedure, shortened: as §1

[16] = tested on: corn; assay: Test A postemergence; format: in vivo, Zea mays; conditions: 0 to 100 scale where 0 is no effect and 100 is complete control; for Corn plant response rating: 125 g ai/ha; for Plant response rating, Corn: 500 g ai/ha
Procedure, shortened: as §1

[17] = tested on: Heteranthera limosa; assay: Test B flooded paddy test; format: in vivo; conditions: Flood, 250 g ai/ha; 0 to 100 scale where 0 is no effect and 100 is complete control
Procedure, shortened: as §2

[18] = tested on: large (Lg) crabgrass; assay: Test A postemergence; format: in vivo, Digitaria sanguinalis; conditions: 0 to 100 scale where 0 is no effect and 100 is complete control; for Crabgrass, Large plant response rating: 125 g ai/ha; for Plant response rating, Crabgrass, Large: 500 g ai/ha
Procedure, shortened: as §1

[19] = tested on: rice; assay: Test B flooded paddy test; format: in vivo, Oryza sativa; conditions: Flood, 250 g ai/ha; 0 to 100 scale where 0 is no effect and 100 is complete control
Procedure, shortened: as §2

[20] = tested on: pigweed; assay: Test A preemergence; format: in vivo, Amaranthus retroflexus; conditions: for Pigweed plant response rating (0 to 100 scale): 125 g ai/ha; for Pigweed plant response rating: 500 g ai/ha, 0 to 100 scale where 0 is no effect and 100 is complete control
Procedure, shortened: as §1

Structure (SMILES) | Velvetleaf plant response rating [1] | Plant response rating, Velvetleaf [1] | Barnyardgrass plant response rating [2] | Plant response rating, Barnyardgrass [2] | Plant response rating, Barnyardgrass [3] | Morningglory plant response rating (0 to 100 scale) [4] | Morningglory plant response rating [4] | Corn plant response rating (0 to 100 scale) [5] | Corn plant response rating [5] | Foxtail, Giant plant response rating [6] | Plant response rating, Foxtail, Giant [6] | Pigweed plant response rating [7] | Plant response rating, Pigweed [7] | Wheat plant response rating [8] | Plant response rating, Wheat [8] | Plant response rating, Sedge, Umbrella [9] | Velvetleaf plant response rating (0 to 100 scale) [10] | Velvetleaf plant response rating [10] | Morningglory plant response rating [11] | Plant response rating, Morningglory [11] | further results
O=[N+]([O-])c1cnc(Oc2ccccc2-n2cc(Br)cn2)nc1 [Compound 225] | 0 | 0 | 0 | 10 | 0 | 0 | 0 | 0 | 0 | 0 | 0 | 0 | 0 | 0 | 0 | 0 | 0 | 0 | 0 | 0 | Foxtail, Giant plant response rating (0 to 100 scale) [12]: 0; Foxtail, Giant plant response rating [12]: 0; Barnyardgrass plant response rating (0 to 100 scale, 0 is no effect, 100 is complete control) [13]: 0; Barnyardgrass plant response rating [13]: 0; Crabgrass, Large plant response rating (0 to 100 scale) [14]: 0; Crabgrass, Large plant response rating [14]: 0; Wheat plant response rating (0 to 100 scale) [15]: 0; Wheat plant response rating [15]: 0; Corn plant response rating [16]: 0; Plant response rating, Corn [16]: 0; Plant response rating, Ducksalad [17]: 0; Crabgrass, Large plant response rating [18]: 0; Plant response rating, Crabgrass, Large [18]: 10; Plant response rating, Rice [19]: 0; Pigweed plant response rating (0 to 100 scale) [20]: 0; Pigweed plant response rating [20]: 0
N#Cc1cccc(Oc2ncc(Cl)cn2)c1-n1cc(Br)cn1 [Compound 235] | 30 | 30 | 0 | 0 | 0 | 0 | 0 | 0 | 0 | 0 | 30 | 90 | 100 | 0 | 0 | 0 | 0 | 0 | 30 | 30 | Foxtail, Giant plant response rating (0 to 100 scale) [12]: 30; Foxtail, Giant plant response rating [12]: 100; Barnyardgrass plant response rating (0 to 100 scale, 0 is no effect, 100 is complete control) [13]: 0; Barnyardgrass plant response rating [13]: 10; Crabgrass, Large plant response rating (0 to 100 scale) [14]: 70; Crabgrass, Large plant response rating [14]: 100; Wheat plant response rating (0 to 100 scale) [15]: 0; Wheat plant response rating [15]: 0; Corn plant response rating [16]: 0; Plant response rating, Corn [16]: 0; Plant response rating, Ducksalad [17]: 0; Crabgrass, Large plant response rating [18]: 10; Plant response rating, Crabgrass, Large [18]: 30; Plant response rating, Rice [19]: 0; Pigweed plant response rating (0 to 100 scale) [20]: 90; Pigweed plant response rating [20]: 100
N#Cc1cnn(-c2c(C=O)cccc2Oc2ncc(Cl)cn2)c1 [Compound 237] | 20 | 30 | 0 | 0 | 0 | 0 | 0 | 0 | 0 | 0 | 0 | 30 | 70 | 0 | 0 | 0 | 0 | 10 | 0 | 0 | Foxtail, Giant plant response rating (0 to 100 scale) [12]: 0; Foxtail, Giant plant response rating [12]: 0; Barnyardgrass plant response rating (0 to 100 scale, 0 is no effect, 100 is complete control) [13]: 0; Barnyardgrass plant response rating [13]: 10; Crabgrass, Large plant response rating (0 to 100 scale) [14]: 0; Crabgrass, Large plant response rating [14]: 10; Wheat plant response rating (0 to 100 scale) [15]: 0; Wheat plant response rating [15]: 0; Corn plant response rating [16]: 0; Plant response rating, Corn [16]: 0; Plant response rating, Ducksalad [17]: 0; Crabgrass, Large plant response rating [18]: 0; Plant response rating, Crabgrass, Large [18]: 0; Plant response rating, Rice [19]: 0; Pigweed plant response rating (0 to 100 scale) [20]: 0; Pigweed plant response rating [20]: 80
N#Cc1cc(F)cc(Oc2ncc(Br)cn2)c1-n1cc(Br)cn1 [Compound 239] | 50 | 60 | 0 | 80 | 0 | 0 | 30 | 0 | 10 | 20 | 70 | 90 | 100 | 0 | 0 | 70 | 10 | 20 | 40 | 40 | Foxtail, Giant plant response rating (0 to 100 scale) [12]: 90; Foxtail, Giant plant response rating [12]: 100; Barnyardgrass plant response rating (0 to 100 scale, 0 is no effect, 100 is complete control) [13]: 20; Barnyardgrass plant response rating [13]: 100; Crabgrass, Large plant response rating (0 to 100 scale) [14]: 100; Crabgrass, Large plant response rating [14]: 100; Wheat plant response rating (0 to 100 scale) [15]: 0; Wheat plant response rating [15]: 20; Corn plant response rating [16]: 0; Plant response rating, Corn [16]: 20; Plant response rating, Ducksalad [17]: 65; Crabgrass, Large plant response rating [18]: 10; Plant response rating, Crabgrass, Large [18]: 70; Plant response rating, Rice [19]: 30; Pigweed plant response rating (0 to 100 scale) [20]: 100; Pigweed plant response rating [20]: 100
